Entries after “also recorded” stand apart in the source; their conditions may differ. Read-outs that look alike come from different tables or passages of the source. No end group written: not given here.
Columns and labels:
Jurkat cells [1] = assay: Apoptosis by electron microscopy; format: cell-based; settings: 4-hr incubation, 62.5 μM Pep27anal2, 100 μM etoposide, 200–400 cells counted per group
Method: Jurkat cells were harvested and immediately fixed in phosphate-buffered glutaraldehyde solution (pH 7.2) for 2 hrs and then fixed in 1% buffered osmium tetroxide for 2 hrs at 4°C. After processing through a graded series of ethanol and propylene oxide, the cells were embedded in Epon. A semi-thin (1 μm) section was cut and stained with toluidine blue for the ultrastructural examination. Ultra-thin (60–90 nm) sections were also prepared from the Epon block above using an ultramicrotome (LKB-V, Sweden), stained with uranyl acetate and lead citrate, and examined under a Hitachi H-7600 electron microscope (Hitachi, Kyoto, Japan). Apoptosis detection was done by taking photographs (×1,000) of the entire field of each ultra-thin sectioned sample. The degree of apoptosis (apoptosis index) was defined as the number of apoptotic cells expressed as a percentage of the total cell count.

Jurkat cells [2] = assay: Apoptosis and membrane integrity by flow cytometry (annexin V-FITC / PI); format: cell-based; settings: 4 hr, 12.5 μM or 63 μM Pep27anal2, 12.5 μM mellitin, 100 μM etoposide
Method: Annexin V binding was assessed by flow cytometry, and cell staining was evaluated using FITC-labeled annexin V (green fluorescence), and propidium iodide (PI) ([…]) simultaneously. This test was able to discriminate between intact cells (FITC-/PI-), apoptotic cells (FITC+/PI-) and necrotic cells (FITC+/PI+) (Vermes et al., 1995). Jurkat cells (10^5/ml) were exposed to etoposide (100 μM), mellitin (12.5 μM) and Pep27anal2 (12.5 μM and 62.5 μM) for 4 hr. Cells were washed with PBS, resuspended in 400 μl of binding buffer (10 mM Hepes/NaOH, pH 7.4, 140 mM NaCl, 2.5.mM CaCl2), and incubated with 10 μl of annexin V-FITC (MedSystems Diagnostics, GmbH, […]) for 10 min at room temperature. After incubation, cells were washed with binding buffer and exposed to 1 μg of PI in a final volume of 400 μl. FITC and PI fluorescences were determined using a flow cytometer (Becton Dickinson, Franklin Lakes, FL, USA)
In the present study, Jurkat cells were treated with 100 μM of etoposide, 12.5 μM of mellitin or 12.5 μM or 63 μM of Pep27anal2 for 4 hr. Apoptosis and membrane integrity were then determined using annexin V and propidium iodide, respectively, as described in "Materials and methods". […] Dead cells appear first in the lower right quadrant (apoptosis), where death was due to the externalization of PS (detected with annexin V-FITC).

[3] = system: AML-2 acute myelogenous leukemia cell line; settings: MTT assay, from semilogarithmic dose-response curves, at least in duplicate
Method: (§1) OCI-AML-2 (AML-2) cell line was obtained from the Ontario Cancer Institute (Toronto, Canada), and Jurkart and HL-60 cell lines from the American Type Culture Collection (ATCC, USA). These three cell lines were cultured at 37°C in a 5% CO2 atmosphere using α-MEM medium (GibcoBRL, Gland Island, NY, USA) containing 10% heat-inactivated fetal bovine serum (FBS, Sigma, ST. Louis, MO, USA). MCF-7 and NIH/3T3 cell lines from ATCC and SNU-601 cell line from the Korean Cancer Cell Bank (Seoul, Korea) were cultured under the same conditions but using RPMI-1640 medium (GibcoBRL, Gland Island, NY, USA) containing 10% heat-inactivated FBS. Cells were maintained in suspension or as monolayer cultures, and subcultured.
(§2) The in vitro cytotoxicity of the Pep27 analogues produced was measured by MTT [3-(4,5-dimethylthiazol-2-yl)-2,5-diphenyl tetrazolium bromide, Sigma, ST. Louis, USA] assay, as described by. IC50 values were determined directly from semilogarithmic dose-response curves. Experiments were carried out at least in duplicate.
(§3) To evaluate the anticancer activities of the Pep27 analogues, different concentrations of these peptides were administered to various cancer cell lines, and cytotoxicities were then determined by MTT assay. In this study, we used both anchorage-dependent and independent cancer cell lines. These included AML-2 an acute myelogenous leukemia cell line, HL-60 an acute promyelocytic leukemia cell line, Jurkat a T cell leukemia cell line, SNU-601 a gastric cancer cell line and MCF-7 a breast cancer cell line.

[4] = system: HL-60 acute promyelocytic leukemia cell line; settings: MTT assay, from semilogarithmic dose-response curves, at least in duplicate
Method: as §1, §2, §3

[5] = system: Jurkat T cell leukemia cell line; settings: MTT assay, from semilogarithmic dose-response curves, at least in duplicate
Method: as §1, §2, §3

[6] = system: MCF-7 breast cancer cell line; settings: MTT assay, from semilogarithmic dose-response curves, at least in duplicate
Method: as §1, §2, §3

[7] = system: SNU-601 gastric cancer cell line; settings: MTT assay, from semilogarithmic dose-response curves, at least in duplicate
Method: as §1, §2, §3

human erythrocytes = settings: 4% human erythrocytes in PBS pH 7.0, 1 h at 37°C, absorbance 414 nm, 100% = 0.1% Triton-100
Method: Peptide hemolytic activities were measured as described by, by determining hemoglobin release by 4% suspensions of fresh human erythrocytes at 414 nm. Briefly, human erythrocyte cells were centrifuged and washed three times with phosphate-buffered saline (PBS: 35 mM phosphate buffer/0.15 M NaCl, pH 7.0). […] of human red blood cells suspended 8% (v/v) in PBS were the inoculated into 96-well plates. […] of the peptide solution, Pep27 or its analogues, was then added to each well. The plates were incubated for 1 h at 37°C, and centrifuged at 150 g for 5 min. […] aliquots of the supernatant obtained were transferred to flat-bottom 96-microtiter plates. Hemolysis was determined by measuring absorbance at 414 nm with an ELISA plate reader (Molecular Devices Emax, Sunnyvale, CA, USA). Hemolysis rates of 0% or 100% were determined as the same way with PBS and 0.1% Triton-100, respectively. Hemolysis percent was calculated using the following equation: % hemolysis = [(Abs414nm in the peptide solution - Abs414nm in PBS)/(Abs414nm in 0.1% Triton-100 - Abs414nm in PBS)] × 100.

Jurkat cells [8] = assay: Cytochrome c release from mitochondria to cytosol (Western blotting); format: cell-based; settings: Jurkat cells (5 × 10^5/ml), 62.5 μM, 4 h
Method: Cytochrome c immunoblotting was performed using a slight modification of a previously described method. Jurkat cells were collected by centrifugation at 200 g for 5 min at 4°C. The cells were then washed twice with ice-cold PBS, pH 7.4, and centrifuged at 200 g for 5 min. The cell pellet obtained was then resuspended in 600 μl of extraction buffer, containing 20 mM Hepes-KOH (pH 7.5), 10 mM KCl, 250 mM sucrose, 1 mM EGTA, 1 mM EDTA, 1.5 mM MgCl2, 1 mM dithiothreitol and 0.1 mM phenylmethylsulfonyl fluoride.
After incubation for 30 min on ice, the cells were homogenized (20 strokes), spun at 14,000 g for 15 min, supernatants were separated from the mitochondrial fraction, and both were stored at -70°C, until required for gel electrophoresis. The mitosol fraction was obtained by adding 0.1% SDS. […]
Cytochrome c is a well-characterized mitochondrial protein and is involved in cellular energy metabolism. […] After these incubations, cytochrome c in the cytosol fraction, obtained by 14,000 g centrifugation for 15 min, and in the mitosol, obtained by adding 0.1% SDS to the mitochondrial fraction, was determined by Western blotting.

Compound | apoptosis (apoptotic cells by electron microscopy) (Jurkat cells [1]) | annexin V-FITC staining (apoptosis) and PI staining (membrane integrity) (Jurkat cells [2]) | IC50 [3] | IC50 [4] | IC50 [5] | IC50 [6] | IC50 [7] | % Hemolysis (human erythrocytes; 0.19 μM peptide) | % Hemolysis (human erythrocytes; 0.39 μM peptide) | % Hemolysis (human erythrocytes; 0.78 μM peptide) | % Hemolysis (human erythrocytes; 1.56 μM peptide) | % Hemolysis (human erythrocytes; 3.12 μM peptide) | % Hemolysis (human erythrocytes; 6.25 μM peptide) | % Hemolysis (human erythrocytes; 12.5 μM peptide) | cytochrome c release from mitochondria into the cytosol (Jurkat cells [8])
COc1cc([C@@H]2c3cc4c(cc3[C@@H](O[C@@H]3O[C@@H]5CO[C@@H](C)O[C@H]5[C@H](O)[C@H]3O)[C@H]3COC(=O)[C@H]23)OCO4)cc(OC)c1O [Etoposide, etoposide, reference compound] | Apoptotic cells were more frequent than in the control group | – | – | – | – | – | – | – | – | – | – | – | – | – | –
CC[C@H](C)[C@H](NC(=O)CN)C(=O)NCC(=O)N[C@@H](C)C(=O)N[C@H](C(=O)N[C@@H](CC(C)C)C(=O)N[C@@H](CCCCN)C(=O)N[C@H](C(=O)N[C@@H](CC(C)C)C(=O)N[C@H](C(=O)N[C@H](C(=O)NCC(=O)N[C@@H](CC(C)C)C(=O)N1CCC[C@H]1C(=O)N[C@@H](C)C(=O)N[C@@H](CC(C)C)C(=O)N[C@H](C(=O)N[C@@H](CO)C(=O)N[C@@H](Cc1c[nH]c2ccccc12)C(=O)N[C@H](C(=O)N[C@@H](CCCCN)C(=O)N[C@@H](CCCNC(=N)N)C(=O)N[C@@H](CCCCN)C(=O)N[C@@H](CCCNC(=N)N)C(=O)N[C@@H](CCC(N)=O)C(=O)N[C@@H](CCC(N)=O)C(N)=O)[C@@H](C)CC)[C@@H](C)CC)[C@@H](C)O)[C@@H](C)O)C(C)C)C(C)C [Mellitin, reference compound] | – | increased the distribution of PI staining without an increase of annexin V-FITC staining | – | – | – | – | – | – | – | – | – | – | – | – | –
MRKEFHNVLSSGQLLADKRPARDYNRK-NH2 [Pep27, reference compound] | – | – | > 70 µM | > 70 µM | > 70 µM | > 70 µM | > 70 µM | 0% | 0% | 0% | 0% | 0% | 0% | 0% | –
MWKEFHNVLSSGQLLADKRWARWYNRW-NH2 [Pep27anal4] | – | – | 50 µM | 51 µM | 46 µM | 29 µM | 37 µM | 0% | 0% | 0% | 0% | 0% | 0% | 0% | –
MWKWFHNVLSSGQLLADKWWAWWYNWW-NH2 [Pep27anal5] | – | – | > 70 µM | > 70 µM | > 70 µM | > 70 µM | > 70 µM | 0% | 0% | 0% | 0% | 0% | 0% | 0% | –
MWKWFHNVLSWWWLLADKRPARDYNRK-NH2 [Pep27anal2] | Apoptotic cells were most frequent in this group; also recorded: induced more apoptosis than 100 μM of etoposide | caused a higher level of annexin V-FITC staining with a little increase of PI staining than etoposide | – | – | – | – | – | – | – | – | – | – | – | – | did not induce cytochrome c release

Source: PMC1199608 (Cancer Cell International, 2005)
